Entries after “also recorded” stand apart in the source; their conditions may differ. Where no end group is shown, it is not given here.
Key:
[1] = tested on: recombinant GST-CETP; assay: Anti-protein ELISA of sera of immunised mice, plates coated with recombinant GST-CETP; assay type: in vivo
Excerpt: (§1) FIGS. 12a and 12b show the in vivo induction of CETP specific antibodies by the administration of the mimotopes of the invention. Titers to p4073 and its correlation to titers to CETP of selected groups (which show high titers against p4073): gr.4, gr.9, gr.10, gr.14, gr.16-20/gr.1 (KLH), gr.2 (original epitope) as controls. Coating: recombinant GST-CETP or purified rabbit CETP, respectively:
(§2) Sera of each group (5 Balb/c mice each) were combined, diluted 1:100 and tested on ELISA plates coated with recombinant GST-CETP or rabbit CETP, respectively. Detection of bound antibodies was with algG.
(§3) Titers to injected peptides as well as to the original CETP epitope were determined. In addition, for selected sera also immune response to CETP protein was measured (Results see FIGS. 7a to 7d and FIGS. 19a to 19e).

[2] = tested on: injected peptide-BSA; assay: Titer to the injected peptide in sera of immunised animals (peptide ELISA); assay type: in vivo, mouse; settings: FIG. 11; Balb/c mice, 30 μg peptide, Alum as adjuvant; S3 = 2 weeks after 3rd injection; detection αIgG
Experimental: Balb/c mice/30 μg Peptide, 2 injections in 2 week intervals. S3=2 weeks after 3rd injection. Alum as adjuvant. […] Detection: αIgG:
(§4) Inhibiting as well as some non-inhibiting peptides were coupled to KLH and injected into mice (wildtype or CETP-transgenic mice; subcutaneously into the flank or intra-dermaly into the ears) or rabbits (subcutaneously into the flank) together with an appropriate adjuvant (aluminium hydroxide and Gerbu 100 for mice and aluminium hydroxide or CFA/IFA for rabbits).
as §3
Subcutaneous injections in the flank were performed in week 1, week 3 and week 7 with 30 μg peptide-KLH per mouse. Intradermal injections in the ear were performed in week 1, week 3 and week 6 with 10 μg peptide-KLH per mouse. Sera were taken 2 weeks after the 3rd injection. Vaccine formulation with Alum (always 1 mg per mouse): up to 250 μl, injected into one flank. The Alum formulation with 1 ml per mouse (500 μl into each flank) was in 1×PBS as buffer. […]

[3] = tested on: rabbit CETP; assay: Anti-protein ELISA of sera of immunised mice, plates coated with purified rabbit CETP; assay type: in vivo, mouse
Excerpt: as §1, §2, §3

[4] = tested on: original epitope (p4073); assay: Titer to the original CETP epitope in sera of immunised animals (peptide ELISA); assay type: in vivo, mouse; settings: FIG. 11; Balb/c mice, 30 μg peptide, Alum as adjuvant; S3; coating 1 μM p4073-BSA; detection αIgG
Experimental: (§5) Balb/c mice/30 μg Peptide, 2 injections in 2 week intervals. S3=2 weeks after 3rd injection. Alum as adjuvant. Titers against original epitope (p4073) induced by injection of mimotopes. Well coating: 50 μl of 1 μM p4073-BSA or 1 μg/ml activated KLH. Detection: αIgG:
as §4, §3
(§6) Subcutaneous injections in the flank were performed in week 1, week 3 and week 7 with 30 μg peptide-KLH per mouse. Intradermal injections in the ear were performed in week 1, week 3 and week 6 with 10 μg peptide-KLH per mouse. Sera were taken 2 weeks after the 3rd injection. Vaccine formulation with Alum (always 1 mg per mouse): up to 250 μl, injected into one flank. The Alum formulation with 1 ml per mouse (500 μl into each flank) was in 1×PBS as buffer.
Vaccine formulation with Gerbu Adjuvant 100 (Gerbu Cat. Nr. #3100; always 50 μl adjuvant per mouse): 200 μl, 100 μl injected into each flank comprising 1×HEPES as buffer. […]

[5] = tested on: CETP; assay: CETP activity assay: human serum mixed with serum from vaccinated wild-type mice; assay type: biochemical; settings: for inhibition of CETP activity in human serum (in words): FIGS. 15 to 17 and remarks in the example set-up table, sera of vaccinated mice; for CETP activity after addition of serum from vaccinated mice: FIG. 14, 0.6 μl human serum
[6] = tested on: irrelevant peptide-BSA; assay: Titer to irrelevant peptide in sera of immunised animals (peptide ELISA); assay type: in vivo, mouse; settings: FIG. 11; Balb/c mice, 30 μg peptide, Alum as adjuvant; S3; detection αIgG
Experimental: as §5, §6
Vaccine formulation with Gerbu Adjuvant 100 (Gerbu Cat. Nr. #3100; always 50 μl adjuvant per mouse): 200 μl, 100 μl injected into each flank comprising 1×HEPES as buffer.
Female Balb/c mice, five mice per group, were subcutaneously immunized with 30 μg peptide coupled to KLH. Control groups were administered KLH or C-[…] (SEQ ID NO. 147). As adjuvant alum was used. […] The in vitro ELISA assay to determine the antibody titer was performed with pooled sera after two vaccinations in a two week interval (S2; see FIGS. 7a to 7d). The wells of the ELISA plate were coated with KLH (positive control), mimotope-BSA conjugate, C-[…] (SEQ ID NO. 147) and a irrelevant peptide-BSA conjugate (negative control). The detection was performed with anti-mouse IgG.

[7] = FIG. 12b, sera of immunised mice
[8] = FIG. 12b, sera of immunised mice, purified rabbit CETP
[9] = FIG. 12a, sera of immunised mice
[10] = FIG. 12a, sera of immunised mice, purified rabbit CETP
[11] = FIG. 13, combined sera of 5 Balb/c mice, diluted 1:100

## p4343-KLH: C-FYFPAHVSIDWLQSLS coupled to KLH (CFYFPAHVSIDWLQSLS; also: coupled to KLH)
[1]; [7]
  ELISA signal, recombinant GST-CETP: 0.61
[2]
  titer, injected peptide-BSA: 5.580
[3]; [8]
  ELISA signal, rabbit CETP: 1.05
[4]
  titer, original epitope-BSA: 2.900
[5]
  inhibition of CETP activity in human serum (in words): C-33: recogn. protein/not in-
[6]
  titer, irrelevant peptide-BSA: 10

## p4325-KLH: C-FGFPSHLIIDWLQSLS coupled to KLH (CFGFPSHLIIDWLQSLS; also: coupled to KLH)
[1]; [7]
  ELISA signal, recombinant GST-CETP: 0.59
[2]
  titer, injected peptide-BSA: 2.930
[3]; [8]
  ELISA signal, rabbit CETP: 0.85
[4]
  titer, original epitope-BSA: 1.820
[5]; listed as p4325-KLH/Alum
  inhibition of CETP activity in human serum (in words): inhibits significantly CETP activity; also recorded: C-31 and C-33; sera inhibiting
[6]
  titer, irrelevant peptide-BSA: 10

## p4345-KLH: C-FATPSHLIIDWLQSLS coupled to KLH (CFATPSHLIIDWLQSLS; also: coupled to KLH)
[1]; [7]
  ELISA signal, recombinant GST-CETP: 0.39
[2]
  titer, injected peptide-BSA: 8.380
[3]; [8]
  ELISA signal, rabbit CETP: 0.46
[4]
  titer, original epitope-BSA: 1.270
[6]
  titer, irrelevant peptide-BSA: 10

## p4359-KLH: C-FGFPAHIIIDWLQSLS coupled to KLH (CFGFPAHIIIDWLQSLS; also: coupled to KLH)
[1]; [9]
  ELISA signal, recombinant GST-CETP: 0.79
[2]
  titer, injected peptide-BSA: 8.540
[3]; [10]
  ELISA signal, rabbit CETP: 0.54
[4]
  titer, original epitope-BSA: 5.340
[6]
  titer, irrelevant peptide-BSA: 10

## p4341-KLH: C-WGFPAHVSIDWLQSLS coupled to KLH (CWGFPAHVSIDWLQSLS; also: coupled to KLH)
[1]; [9]
  ELISA signal, recombinant GST-CETP: 0.39
[2]
  titer, injected peptide-BSA: 10.350
[3]; [10]
  ELISA signal, rabbit CETP: 0.18
[4]
  titer, original epitope-BSA: 5.500
[6]
  titer, irrelevant peptide-BSA: 10

## p4342-KLH: C-FSFPAHVSIDWLQSLS coupled to KLH (CFSFPAHVSIDWLQSLS; also: coupled to KLH)
[1]; [7]
  ELISA signal, recombinant GST-CETP: 0.38
[2]
  titer, injected peptide-BSA: 4.620
[3]; [8]
  ELISA signal, rabbit CETP: 0.41
[4]
  titer, original epitope-BSA: 1.610
[6]
  titer, irrelevant peptide-BSA: 10

## p4361-KLH: C-FGFPAHVFIDWLQSLS coupled to KLH (CFGFPAHVFIDWLQSLS; also: coupled to KLH)
[1]; [9]
  ELISA signal, recombinant GST-CETP: 1.64
[2]
  titer, injected peptide-BSA: 17.940
[3]; [10]
  ELISA signal, rabbit CETP: 1.51
[4]
  titer, original epitope-BSA: 9.530
[5]; 0.2 μl mouse serum
  CETP activity after addition of serum from vaccinated mice: reduces significantly said activity
[5]; 1.2 μl and 0.6 μl mouse serum
  CETP activity after addition of serum from vaccinated mice: completely inhibits CETP activity
[5]
  inhibition of CETP activity in human serum (in words): inhibits significantly CETP activity
[6]
  titer, irrelevant peptide-BSA: 10

## p4362-KLH/Alum: C-FGFPAHVYIDWLQSLS coupled to KLH, Alum (CFGFPAHVYIDWLQSLS; also: coupled to KLH)
[1]; [11]
  ELISA signal, recombinant GST-CETP: 0.86
[3]; [11]
  ELISA signal, rabbit CETP: 0.94
[5]
  inhibition of CETP activity in human serum (in words): inhibits significantly CETP activity

## p4351-KLH: C-FGFPAHVSIDWLQYLS coupled to KLH (CFGFPAHVSIDWLQYLS; also: coupled to KLH)
[1]; [7]
  ELISA signal, recombinant GST-CETP: 0.54
[2]
  titer, injected peptide-BSA: 2.950
[3]; [8]
  ELISA signal, rabbit CETP: 0.59
[4]
  titer, original epitope-BSA: 2.400
[6]
  titer, irrelevant peptide-BSA: 10

## p4340-KLH: C-PGFPAHVSIDWLQSLS coupled to KLH (CPGFPAHVSIDWLQSLS; also: coupled to KLH)
[1]; [9]
  ELISA signal, recombinant GST-CETP: 0.49
[2]
  titer, injected peptide-BSA: 18.100
[3]; [10]
  ELISA signal, rabbit CETP: 0.21
[4]
  titer, original epitope-BSA: 15.640
[6]
  titer, irrelevant peptide-BSA: 10

## p4344-KLH: C-FDFPAHVSIDWLQSLS coupled to KLH (CFDFPAHVSIDWLQSLS; also: coupled to KLH)
[1]; [7]
  ELISA signal, recombinant GST-CETP: 0.35
[2]
  titer, injected peptide-BSA: 12.200
[3]; [8]
  ELISA signal, rabbit CETP: 0.43
[4]
  titer, original epitope-BSA: 3.580
[6]
  titer, irrelevant peptide-BSA: 10

## p4358-KLH: C-FGFPAHISIDWLQSLS coupled to KLH (CFGFPAHISIDWLQSLS; also: coupled to KLH)
[1]; [9]
  ELISA signal, recombinant GST-CETP: 0.68
[2]
  titer, injected peptide-BSA: 16.500
[3]; [10]
  ELISA signal, rabbit CETP: 0.58
[4]
  titer, original epitope-BSA: 12.940
[6]
  titer, irrelevant peptide-BSA: 10
